Measured values as given in article PMC8883597 (Xenobiotica; the fate of foreign compounds in biological …, 2021).
Where two headings read alike, the source gives them in different places.

How the values were obtained:
[1] = rat, in vivo
[2] = male, Sprague Dawley, rat, in vivo, iv, 2.25 mg/kg
[3] = Toxicokinetics in plasma after a single gavage administration; conditions: male rats
rats = conditions: ref Hirata-Koizumi et al., 2008b, cited from earlier work
[4] = male, Sprague Dawley, rat, in vivo
[5] = rat, in vivo, 10 mg/kg; cited from earlier work
[6] = male, Sprague Dawley, po, 30 mg/kg
[7] = male, Sprague Dawley, po, 300 mg/kg
[8] = male, Sprague Dawley, 300 mg/kg

## Cc1cc(-n2nc3ccc(Cl)cc3n2)c(O)c(C(C)(C)C)c1 [Bumetrizole, 2-(5-chloro-2H-1,2,3-benzotriazol-2-yl)-6-(1,1-dimethylethyl)-4-methylphenol]
[1]; male, Sprague Dawley, 30 mg/kg
  time points where plasma concentrations were below LOD: 0.0333 h
[1]; [6]
  AUC: 21000 ± 5300 ng·h/mL
  Cmax: 2020 ± 490 ng/mL
  Half-life (beta half-life): 48.4 ± 116 h
  Tmax: 3.08 ± 0.77 h
[1]; [7]
  AUC: 41600 ± 11600 ng·h/mL
  Cmax: 2450 ± 710 ng/mL
  Half-life (beta half-life): 37.5 ± 401 h
  Tmax: 5.06 ± 1.24 h

## Cc1ccc(O)c(-n2nc3ccccc3n2)c1 [Drometrizole, 2-(2H-Benzotriazol-2-yl)-4-methylphenol]
[1]; male, Sprague Dawley, 30 mg/kg
  Half-life (beta half-life): 1120 ± 5780 h
[1]; [6]
  Cmax: 138 ± 1900 ng/mL
  Tmax: 0.0196 ± 24.6 h
[1]; [7]
  AUC: 29800 ± 14700 ng·h/mL
  Cmax: 358 ± 26 ng/mL
  Half-life (beta half-life): 103 ± 72 h
  plasma elimination half-life (beta half-life): 103 to 1120 h

## CC(C)(C)CC(C)(C)c1ccc(O)c(-n2nc3ccccc3n2)c1 [Octrizole, 2-(2H-Benzotriazol-2-yl)-4-(1,1,3,3-tetramethylbutyl)phenol]
[1]; [6]
  AUC: 5980 ± 1950 ng·h/mL
  Cmax: 561 ± 170 ng/mL
  Half-life (beta half-life): 56.8 ± 233 h
  Tmax: 3.71 ± 1.08 h
[1]; [7]
  AUC: 30000 ± 7400 ng·h/mL
  Cmax: 3590 ± 850 ng/mL
  Half-life (beta half-life): 21.4 ± 18.2 h
[2]
  AUC: 3510 ± 440 ng·h/mL
  Cmax: 20600 ± 7800 ng/mL
  Half-life (gamma half-life): 15.4 ± 2.4 h
[3]; single gavage 300 mg/kg group
  time points where plasma concentrations were below LOD: 0.0333 h

## CC(C)(C)c1ccc(O)c(-n2nc3ccccc3n2)c1 [ditBu-BZT, 2-(2H-benzotriazol-2-yl)-4-tert-butylphenol]
rats; gavage 0.1–12.5 mg/kg for 13 and 52 weeks
  toxicity finding: enlarged livers accompanied by histopathological changes
rats; highest dose
  toxicity finding at the highest dose: Increased relative organ weights (e.g., brain and testes) and hematological effects

## CCC(C)(C)c1cc(-n2nc3ccccc3n2)c(O)c(C(C)(C)CC)c1 [ditPe-BZT, 2-(2H-Benzotriazol-2-yl)-4,6-bis(1,1-dimethylpropyl)phenol]
[4]; 300 mg/kg
  Oral bioavailability: 5.53%
[1]; [6]
  Tmax: 2.96 ± 1.10 h
[1]; [7]
  Half-life (beta half-life): 17.1 ± 53.3 h

## CC(C)(C)c1ccc(O)c(-n2nc3ccccc3n2)c1 [tBu-BZT, 2-(2H-Benzotriazol-2-yl)-4-tert-butylphenol]
[3]; gavage 30 to 300 mg/kg
  increase in AUC with a 10-fold increase in the dose: dose-proportional

## CC(C)(C)c1cc(CCC(=O)OCCCCCCOC(=O)CCc2cc(-n3nc4ccccc4n3)c(O)c(C(C)(C)C)c2)cc(-n2nc3ccccc3n2)c1O [tBuPrHexEst-BZT, 3-(2H-benzotriazol-2-yl)-5-(1,1-dimethylethyl)-4-hydroxybenzenepropanoic acid, 1,6-hexanediyl ester]
[5]
  Tmax (time at which Cmax was achieved): 1 to 2 h
  apparent half-life: ~ 12 h
  maximum blood concentration (Cmax): < 0.13 µg/g

## COC(=O)CCc1cc(-n2nc3ccccc3n2)c(O)c(C(C)(C)C)c1 [tBuPrMeEst-BZT, 3-(2H-benzotriazol-2-yl)-5-(1,1-dimethylethyl)-4-hydroxybenzenepropanoic acid, methyl ester]
[5]
  Tmax (time at which Cmax was achieved): 1 to 2 h
  maximum blood concentration (Cmax): < 2 µg/g

## CCCCCCCCOC(=O)CCc1cc(-n2nc3ccccc3n2)c(O)c(C(C)(C)C)c1 [tBuPrOcEst-BZT, 3-(2H-Benzotriazol-2-yl)-5-(1,1-dimethylethyl)-4-hydroxybenzenepropanoic acid, octyl ester]
[4]; 30 mg/kg
  Oral bioavailability: 23.0%
[4]; 300 mg/kg
  Oral bioavailability: 16.0%
[1]; male, Sprague Dawley, 30 mg/kg
  AUC: 42300 ± 11500 ng·h/mL
  Cmax: 12800 ± 3100 ng/mL
  Half-life (beta half-life): 9.53 ± 1.73 h
  Tmax: 1.07 ± 0.30 h
[1]; [8]
  AUC: 294000 ± 85000 ng·h/mL
  Cmax: 47800 ± 13500 ng/mL
  Half-life (beta half-life): 13.6 ± 6.4 h
  Tmax: 1.91 ± 0.56 h
[1]; [7]
  Cmax: 12800 to 47800 ng/mL
  Tmax: 1.07 to 1.91 h
  plasma elimination half-life (beta half-life): 9.53 to 13.6 h
[1]; po
  concentration of the parent in plasma: mostly below LOD
[2]
  AUC: 13800 ± 300 ng·h/mL
  Cmax: 22400 ± 900 ng/mL
  Half-life (gamma half-life): 19.2 ± 1.1 h
